# Laboratory results published in paper PMC5459853, “Cathepsin S inhibition combines control of systemic and peripheral pathomechanisms of autoimmune tissue injury” (Scientific Reports, 2017).
# Key:
# Human Cat-L = Human Cat-L (Homo sapiens, UniProt P07711); experiment: Enzymatic isoform-selectivity assay, Cat-L; type: biochemical
# Protocol: (§1) RO5459072 was provided by F. Hoffmann-La Roche, Ltd., Basel, Switzerland. It is a competitive inhibitor of the active site of Cat-S and its nitrile function allows covalent reversible inhibition of Cat-S. The synthesis of RO5459072 has been described in WO 2010121918 and WO 2013068434. Recombinant cathepsins were produced in-house or were purchased from commercial vendors. Initial enzymatic assays to determine isoform-selectivity in vitro were performed as previously described, [23]. […] For this the Cat-S-dependent hydrolysis of the fluorogenic substrate Z-Phe-Arg-AMC (Sigma Aldrich) was followed at various inhibitor concentrations. The active fraction of Cat-S was detemined as 70% with a HPLC assay measuring modification of Cat-S with the covalent inhibitor LHVS. The buffer (100 mM potassium phosphate, 50 mM NaCl, 5 mM EDTA, 5 mM TCEP, pH 6) was thoroughly degassed prior to perfoming measurements to prevent oxidation of the catalytic cystein residue by dissolved oxygen. For the Ki-determination the substrate was employed at 10 µM = KM. All kinetic measurements were performad on a SFM-3000 stopped-flow instrument (Bio-Logic Science Instruments) and data were analyzed with GraphPad Prism v5.
# [1] = Plasma exposure on food admix (HPLC-MS/MS) and spleen p10; type: in vivo, MRL-(Fas)lpr mice
# Protocol: Four-week-old female MRL-(Fas)lpr mice were purchased from Harlan Winkelmann (Borchen, Germany) and kept under pathogen-free conditions in a 12 hour light and dark cycle with free access to food and water. All animal experiments were performed in accordance with the European protection laws of animal welfare, and with approval by the local government authorities Regierung von Oberbayern (reference number: 55.2.1-54-2532.2-11-12). At 11 or 15 weeks of age only mice with proteinuria (Albustix, Bayer AG, Leverkusen, Germany) were randomized into five different groups (n = 10) receiving different medicated diets: Three groups were fed with chow mixed with either 3, 10 or 30 mg/kg/day RO5459072, another group’s chow was mixed with 100 mg/kg/day mycophenolate mofetil (MMF), and one group received a standard diet (vehicle). The dose of MMF was chosen according to several studies reporting strong efficacy on SLE and lupus nephritis in MRL-(Fas)lpr mice[24]–[26]. […] At the age of 19 weeks all mice were sacrificed by cervical dislocation. Blood and urine samples were collected at different time points as indicated. In other experiments 7 week old female MRL-(Fas)lpr mice were randomized into three groups (n = 3) to receive a single intravenous injection of 10 µg sterile recombinant Cat-S and one group receiving vehicle (100 µl sterile PBS). One of the Cat-S groups was pretreated with 30 mg/kg/day RO5459072 starting one week prior to Cat-S injection; another group was pretreated with a total of four daily intra-peritoneal injections of the PAR-2 inhibitor GB83 (10 mg/kg).
# Plasma samples were collected from mice during the feeding cycle on weeks 2, 4, 6 and 8 on a variable schedule of individuals after initiation of feeding with the drug-food admix on week 1. The levels in food were calculated to achieve doses of 3, 10 and 30 mg/kg/day. EDTA-treated plasma samples (29 per dose level) were frozen and subsequently analysed for the parent drug by HPLC-MS/MS. A column-trapping method (Phenonenex Luna C18 and Thermo Hypersil Gold C8 HPLC columns eluted with formic acid/water/acetonitrile mixtures on a Waters Acquity HPLC system) was used to separate the drug which was quantified using a Sciex API4000 MS/MS. The analytical range was 10–10,000 ng/ml and a stable label internal standard was used. […] All experiments were performed according to German animal protection laws and had been approved by the local government authorities.
# Human Cat-B = Human Cat-B (Homo sapiens, UniProt P07858); experiment: Enzymatic isoform-selectivity assay, Cat-B; type: biochemical
# Protocol: as §1
# Sequence of Human Cat-L (P07711 114-333): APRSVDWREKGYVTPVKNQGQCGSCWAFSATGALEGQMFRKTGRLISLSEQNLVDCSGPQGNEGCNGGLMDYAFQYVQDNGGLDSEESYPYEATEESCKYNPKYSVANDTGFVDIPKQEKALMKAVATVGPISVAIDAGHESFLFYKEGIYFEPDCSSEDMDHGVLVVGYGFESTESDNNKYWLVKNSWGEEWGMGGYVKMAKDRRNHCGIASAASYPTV
smiles,measurement,setting,value
Cn1cc(-c2ccc(S(=O)(=O)[C@@H]3C[C@@H](C(=O)NC4(C#N)CC4)N(C(=O)C4(C(F)(F)F)CC4)C3)c(C(F)(F)F)c2)cn1 [RO5459072],IC50,Human Cat-L,> 1000 nM
same,"IC50, Human Cat-L",Human Cat-L,No sub-micro molar inhibition
same,mean plasma concentration (SD),[1]; 3 mg/kg/day food admix,172 ± 58.4 ng/mL
same,mean plasma concentration (SD),[1]; 10 mg/kg/day food admix,648 ± 142 ng/mL
same,mean plasma concentration (SD),[1]; 30 mg/kg/day food admix,2660 ± 575 ng/mL
same,p10 fragment accumulation in the spleen,"[1]; food admix, MRL-(Fas)lpr mice",robust p10 fragment accumulation
same,concentration at 8 weeks,"[1]; mouse, plasma, oral, food admix 262 mg/kg of food, exposure dose 30 mg/kg, over 8 weeks, female MRL-(Fas)lpr mice, read-out: stable plasma levels",400 to 600 ng/mL
same,IC50,Human Cat-B,> 1000 nM
same,"IC50, Human Cat-B",Human Cat-B,No sub-micro molar inhibition
